Experimental data as given in US20200029601A1, “PHENYLACRYLIC ACID SOLUTION FOR BROAD SPECTRUM ANTIMICROBIAL APPLICATIONS FOR FOODSTUFFS” (KLF LABS LLC, priority 2018, published 2020).
Like-named read-outs stand apart in the source and are kept apart here.

Key:
[1] = test system: Saccharomyces cerevisiae; assay: Yeast growth in sterile model beverage (Experimental Test 5); format: cell-based; conditions: 300 ppm; model beverage at 4° C.; 72 hours
Description: Application experiments were set up using a model beverage. The formulations were tested against Saccharomyces cerevisiae, a yeast well recognized for its beverage spoiling quality. A sterile model beverage was prepared using the formulation indicated in Table 19, with an initial inoculation quantity of 10^4 cells/mL of beverage. […] The OD 660 of each sample was measured 72 hours after initial inoculation using an 8543 Spectrophotometer and the data was compiled using excel, as depicted in Table 20.

[2] = test system: Escherichia coli; conditions: 500 ppm; pH 4.5; 24 hours growth, then plated
Description: (§1) In conducting tests with the model organisms, agar medium for 1 L plates were first prepared having the composition indicated in Table 16.
(§2) In connection with this particular experiment, the pH of the samples was adjusted to a pH value of 4.5 by adding a small amount of 0.1 M HCl. The samples were then sterilized with steam at 121° C. for about 15 minutes. The formulations were allowed to cool to 70° F., after which a sample of 10^6 cells of an aforementioned microorganism, as measured using the optical density of the cells, was applied to 1 mL of the individual solutions. Afterwards, samples were allowed to grow for 24 hours. The solutions were diluted one hundred-fold and 10 microliters were applied to a LB media plate and outgrown for 24 additional hours.

[3] = test system: Lactobacillus acidophilus; conditions: 500 ppm; pH 4.5; 24 hours growth, then plated
Description: as §1, §2

[4] = test system: Saccharomyces cerevisiae; conditions: 1000 ppm (positive control); pH 4.0; 72 hours
Description: Each of the formulations presented above was added to each of the three 20 mL samples of the agar medium.
In connection with this particular experiment, the pH of the samples was adjusted to a pH value of 4.0 by adding a small amount of 0.1 M HCl. The samples were then sterilized with steam at 121° C. for 15 minutes. In one embodiment, 1 mL sample formulations were poured into a 1.5 mL sterile microcentrifuge tube and inoculated with ˜10,000 Saccharomyces cerevisiae cells (e.g., yeast cells). The cells were allowed to grow outwards for 72 hours and then the endpoint concentration of cell growth was determined spectrophotometrically at 660 nm. In samples where cell growth was generally absent cell samples were diluted and counted on a yeast extract peptone dextrose plate. Controls to account for the presence of binder in the absorbance reading were subtracted out in the reporting of the final absorbance. The negative control was diluted twenty times prior to reading the Abs 660 nm.

[5] = test system: Candida parapsilosis; assay: microbe, parasite or virus in culture; conditions: Lodderomyces parapsilosis, 48 h
Description: (§3) The media was then sterilized by steam autoclaving the solution for 15 minutes at 121° C. and the media was placed into 3 96 cell plates and pH using either 0.1N HCl or 0.1N NaOH to pH values of 3.1, 5.6, 6.0, 6.5, 7.0, and 7.5.
(§4) Three exemplary embodiment solutions were added and serial diluted into a series of treatment wells and 0.5 McFarland Standard's worth of yeast cells were added to each well. The plates were incubated at 32° C. for 48 hours and then the OD was read at 600 nm. The percent inhibition was graphed as a percentage of the following formula indicated in Equation 1.

[6] = test system: Zygosaccharomyces rouxii; assay: microbe, parasite or virus in culture; conditions: 48 h
Description: as §3, §4

[7] = test system: Saccharomyces cerevisiae; assay: microbe, parasite or virus in culture; conditions: 48 h
Description: as §3, §4

[8] = test system: Zygosaccharomyces bailii; assay: microbe, parasite or virus in culture; conditions: 48 h
Description: as §3, §4

[9] = pH 3.1, read-out: Percent inhibition
[10] = pH 5.6, read-out: Percent inhibition
[11] = pH 6, read-out: Percent inhibition
[12] = pH 6.5, read-out: Percent inhibition
[13] = pH 7, read-out: Percent inhibition
[14] = pH 7.5, read-out: Percent inhibition

## O=C(O)C=Cc1ccccc1 [Phenylacrylic Acid, 3-phenyl-2-propenoic acid]
[1]
  OD 660 nm: 0.51

## C/C=C/C=C/C(=O)[O-].[K+] [Potassium Sorbate]
[2]
  Escherichia coli cell count: 5.49 Log(CFU/mL)
[3]
  Lactobacillus acidophilus cell count: <2 Log(CFU/mL)
[4]
  Abs 660 nm after 3 days: 0.0396 ± 0.005
  Cell Count after 3 days: 5.3 × 10^5 CFU/mL
[5]; [9]
  inhibition at 130 ppm: 0.9%
  inhibition at 250 ppm: 5.2%
  inhibition at 500 ppm: 16.2%
  inhibition at 1000 ppm: 13.5%
  inhibition at 2000 ppm: 6.5%
[5]; [10]
  inhibition at 130 ppm: 9.5%
  inhibition at 250 ppm: 12.3%
  inhibition at 500 ppm: 28.7%
  inhibition at 1000 ppm: 32.8%
  inhibition at 2000 ppm: 42.4%
[5]; [11]
  inhibition at 130 ppm: 5%
  inhibition at 250 ppm: 12.8%
  inhibition at 500 ppm: 7.6%
  inhibition at 1000 ppm: 4.6%
  inhibition at 2000 ppm: 2.8%
[5]; [12]
  inhibition at 130 ppm: 3.3%
  inhibition at 250 ppm: 1.1%
  inhibition at 500 ppm: 0%
  inhibition at 1000 ppm: 0%
  inhibition at 2000 ppm: 0.8%
[5]; [13]
  inhibition at 130 ppm: 1.7%
  inhibition at 250 ppm: 8.8%
  inhibition at 500 ppm: 15.9%
  inhibition at 1000 ppm: 8.3%
  inhibition at 2000 ppm: 8.4%
[5]; [14]
  inhibition at 130 ppm: 6.2%
  inhibition at 250 ppm: 0%
  inhibition at 500 ppm: 0%
  inhibition at 1000 ppm: 0%
  inhibition at 2000 ppm: 7.4%
[6]; [9]
  inhibition at 130 ppm: 39.3%
  inhibition at 250 ppm: 66.7%
  inhibition at 500 ppm: 80.4%
  inhibition at 1000 ppm: 88.6%
  inhibition at 2000 ppm: 84.2%
[6]; [10]
  inhibition at 130 ppm: 93.7%
  inhibition at 250 ppm: 95.9%
  inhibition at 500 ppm: 37.7%
  inhibition at 1000 ppm: 99.3%
  inhibition at 2000 ppm: 100%
[6]; [11]
  inhibition at 130 ppm: 0%
  inhibition at 250 ppm: 0%
  inhibition at 500 ppm: 3.4%
  inhibition at 1000 ppm: 17.4%
  inhibition at 2000 ppm: 63.3%
[6]; [12]
  inhibition at 130 ppm: 19.7%
  inhibition at 250 ppm: 0%
  inhibition at 500 ppm: 6.7%
  inhibition at 1000 ppm: 65.6%
  inhibition at 2000 ppm: 90.6%
[6]; [13]
  inhibition at 130 ppm: 4.7%
  inhibition at 250 ppm: 9.2%
  inhibition at 500 ppm: 62.7%
  inhibition at 1000 ppm: 86.2%
  inhibition at 2000 ppm: 89.3%
[6]; [14]
  inhibition at 130 ppm: 7.2%
  inhibition at 250 ppm: 16.5%
  inhibition at 500 ppm: 48.6%
  inhibition at 1000 ppm: 74.9%
  inhibition at 2000 ppm: 95.2%
[7]; [9]
  inhibition at 130 ppm: 99.6%
  inhibition at 250 ppm: 99.4%
  inhibition at 500 ppm: 99.7%
  inhibition at 1000 ppm: 99.8%
  inhibition at 2000 ppm: 99.3%
[7]; [10]
  inhibition at 130 ppm: 84.9%
  inhibition at 250 ppm: 95.3%
  inhibition at 500 ppm: 98.1%
  inhibition at 1000 ppm: 99%
  inhibition at 2000 ppm: 99.4%
[7]; [11]
  inhibition at 130 ppm: 9.9%
  inhibition at 250 ppm: 25%
  inhibition at 500 ppm: 50.3%
  inhibition at 1000 ppm: 62%
  inhibition at 2000 ppm: 76.2%
[7]; [12]
  inhibition at 130 ppm: 17.7%
  inhibition at 250 ppm: 28.2%
  inhibition at 500 ppm: 48.1%
  inhibition at 1000 ppm: 60.6%
  inhibition at 2000 ppm: 84.6%
[7]; [13]
  inhibition at 130 ppm: 22%
  inhibition at 250 ppm: 37.9%
  inhibition at 500 ppm: 53.2%
  inhibition at 1000 ppm: 69%
  inhibition at 2000 ppm: 84.9%
[7]; [14]
  inhibition at 130 ppm: 19.4%
  inhibition at 250 ppm: 44.9%
  inhibition at 500 ppm: 55.8%
  inhibition at 1000 ppm: 73.6%
  inhibition at 2000 ppm: 72.1%
[8]; [9]
  inhibition at 130 ppm: 91.9%
  inhibition at 250 ppm: 96.5%
  inhibition at 500 ppm: 99.1%
  inhibition at 1000 ppm: 99.7%
  inhibition at 2000 ppm: 100%
[8]; [10]
  inhibition at 130 ppm: 70.4%
  inhibition at 250 ppm: 86.7%
  inhibition at 500 ppm: 95.6%
  inhibition at 1000 ppm: 99.7%
  inhibition at 2000 ppm: 99.8%
[8]; [11]
  inhibition at 130 ppm: 0%
  inhibition at 250 ppm: 0%
  inhibition at 500 ppm: 0%
  inhibition at 1000 ppm: 1.8%
  inhibition at 2000 ppm: 3%
[8]; [12]
  inhibition at 130 ppm: 0%
  inhibition at 250 ppm: 0%
  inhibition at 500 ppm: 0%
  inhibition at 1000 ppm: 0%
  inhibition at 2000 ppm: 20%
[8]; [13]
  inhibition at 130 ppm: 0%
  inhibition at 250 ppm: 0%
  inhibition at 500 ppm: 0%
  inhibition at 1000 ppm: 0%
  inhibition at 2000 ppm: 16%
[8]; [14]
  inhibition at 130 ppm: 9.7%
  inhibition at 250 ppm: 0%
  inhibition at 500 ppm: 0%
  inhibition at 1000 ppm: 0%
  inhibition at 2000 ppm: 0.3%
